Laboratory results reported in PMC7495477, “IMPROvER: the Integral Membrane Protein Stability Selector” (Scientific Reports, 2020).

Molecular target: T1, ClPPase (membrane-bound pyrophosphatase from Clostridium leptum) ([Clostridium] leptum, UniProt A7VNH8)
T1 construct: gene hppA; N-terminal 8xHis-tag, superfolder GFP and TEV site kept; synthetic gene in pDDGFP; expressed in S. cerevisiae FGY217 membranes; about 700 residues; dimer
T1 sequence (A7VNH8 1-700): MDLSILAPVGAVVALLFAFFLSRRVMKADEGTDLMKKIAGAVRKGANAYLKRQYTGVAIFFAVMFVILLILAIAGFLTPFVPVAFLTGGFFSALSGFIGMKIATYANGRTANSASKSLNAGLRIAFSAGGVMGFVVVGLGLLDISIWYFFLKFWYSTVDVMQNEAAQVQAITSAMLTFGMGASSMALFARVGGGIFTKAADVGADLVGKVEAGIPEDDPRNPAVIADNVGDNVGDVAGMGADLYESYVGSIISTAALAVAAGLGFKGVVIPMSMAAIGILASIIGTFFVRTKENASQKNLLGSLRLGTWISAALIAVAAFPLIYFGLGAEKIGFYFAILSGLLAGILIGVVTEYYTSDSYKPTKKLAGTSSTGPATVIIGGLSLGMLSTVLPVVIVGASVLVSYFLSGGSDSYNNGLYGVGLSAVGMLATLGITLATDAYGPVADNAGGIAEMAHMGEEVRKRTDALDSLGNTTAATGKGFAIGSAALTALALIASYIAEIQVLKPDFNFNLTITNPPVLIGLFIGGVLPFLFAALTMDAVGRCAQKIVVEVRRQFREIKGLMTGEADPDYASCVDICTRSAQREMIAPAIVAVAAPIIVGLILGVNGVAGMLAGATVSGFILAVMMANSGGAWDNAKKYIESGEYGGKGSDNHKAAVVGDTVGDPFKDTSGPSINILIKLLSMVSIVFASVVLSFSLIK
Assay: colorimetric phosphate release assay on yeast membranes
Assay type: biochemical
Conditions: tris-HCl pH 8, MgCl2, KCl, NaCl, NaF, gramicidin, 10 uL of 2 mM tetrabasic sodium pyrophosphate in 50 uL, 30 C, 10 min

`O=P(O)(O)OP(=O)(O)O` [PPi] was tested, and the “colorimetric phosphate release assay on yeast membranes” value was “The hydrolytic activity of wild-type and variant ClPPase in the membrane was assessed”.
